Source: PMC12377485, “Targeting the ANXA8–SP1–PPA1 Axis to Modulate TCA Cycle and Matrix Deposition in Diffuse-Type Gastric Cancer” (Research, 2025)

Target: T1, ANXA8 (Homo sapiens, UniProt P13928)
T1 construct: commercial recombinant protein (MCE); His tag implied by RED-tris-NTA labelling
T1 sequence (P13928 1-327): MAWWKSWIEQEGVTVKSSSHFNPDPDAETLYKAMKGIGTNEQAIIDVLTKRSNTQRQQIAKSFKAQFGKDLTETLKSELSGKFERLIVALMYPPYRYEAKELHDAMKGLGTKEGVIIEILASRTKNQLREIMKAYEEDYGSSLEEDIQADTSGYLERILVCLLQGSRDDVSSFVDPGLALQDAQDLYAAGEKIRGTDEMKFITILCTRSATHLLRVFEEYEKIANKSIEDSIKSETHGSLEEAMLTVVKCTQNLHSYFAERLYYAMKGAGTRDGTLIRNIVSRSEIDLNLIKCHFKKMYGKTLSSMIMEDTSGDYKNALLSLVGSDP
Test: microscale thermophoresis (Monolith NT.[…]), one-site fit
Format: binding

Kd: 83.5 nM
Structure (SMILES): CCCCNc1ncc2c(-c3ccc(CN4CCN(C)CC4)cc3)cn([C@H]3CC[C@H](O)CC3)c2n1 [UNC2025]
